As usually defined, the IC50 is the point on the concentration scale where inhibition reaches its midpoint.

In one series the target is Aurora A kinase (Homo sapiens (Human), UniProt O14965). Description: Aurora A kinase 33P-ATP filter assay (Reaction Biology Corp.). In kind it is biochemical. The procedure: (§1) The ability of the compounds of the invention to inhibit FLT3 kinase and Aurora A and Aurora B kinases was determined using the assays described below.
(§2) Kinase assays were performed at Reaction Biology Corp., Malvern, Pa., USA, using the following general procedure:
(§3) 1) Prepare indicated substrate in freshly prepared Base Reaction Buffer (20 mM Hepes pH 7.5, 10 mM MgCl2, 1 mM EGTA, 0.02% Brij35, 0.02 mg/ml BSA, 0.1 mM Na3VO4, 2 mM DTT, 1% DMSO).
(§4) 2) Deliver cofactors (1.5 mM CaCl2, 16 ug/mL Calmodulin, 2 mM MnCl2) to the substrate solution above.
(§5) 3) Deliver indicated kinase into the substrate solution and gently mix
(§6) 4) Deliver varying concentrations of test compound in DMSO into the kinase reaction mixture.
(§7) 5) Deliver ^33P-ATP (specific activity 0.01 µCi/µL final) into the reaction mixture to initiate the reaction.
(§8) 6) Incubate kinase reaction for 120 min at room temperature.
(§9) 7) Reactions are spotted onto P81 ion exchange filter paper (Whatman #3698-915)
(§10) 8) Unbound phosphate is removed by washing filters extensively in 0.75% phosphoric acid.
(§11) 9) ^33P signal was determined using Typhoon phosphorimagers (GE Healthcare).
(§12) Substrates: Kemptide=[H-LRRASLG] Abltide=[[…]]

The next series concerns the target Aurora B kinase (Homo sapiens (Human), UniProt Q96GD4). Description: Aurora B kinase 33P-ATP filter assay (Reaction Biology Corp.). The series is classed as biochemical. As for the experimental part:
as §1, §2, §3, §4, §5, §6, §7, §8, §9, §10, §11, §12

In the next series the target is FLT3 kinase (Homo sapiens (Human), UniProt P36888). In words: FLT3 kinase 33P-ATP filter assay (Reaction Biology Corp.). The series is classed as biochemical. As for the experimental part:
as §1, §2, §3, §4, §5, §6, §7, §8, §9, §10, §11, §12

Series [1] deals with HCT-116. Description: Anti-proliferative activity, Alamar Blue assay. The series is classed as cell-based. The note with it: Homo sapiens, 96 h exposure, read-out: HCT116 96 Hrs IC50. The procedure:
(§13) The anti-proliferative activities of compounds of the invention are determined by measuring the ability of the compounds to inhibit the growth of the colorectal cancer derived cell-line HCT-116. Inhibition of cell growth is measured using the Alamar Blue assay (Nociari et al., Journal of Immunological Methods (1998) 213, 157-167). The method is based on the ability of viable cells to reduce resazurin to its fluorescent product resorufin. For each proliferation assay cells are plated onto 96 well plates and allowed to recover for 16 hours prior to the addition of inhibitor compounds for a further 96 hours. At the end of the incubation period 10% (v/v) Alamar Blue is added and incubated for a further 6 hours prior to determination of fluorescent product at Excitation 535 nm and Emission 590 nm. All cell lines are obtained from ECACC (European Collection of cell Cultures).
(§14) The activities of the compounds of the invention against the human colorectal cancer cell line HCT-116 are shown the in the table below. The column headed HCT-116 96 Hrs refers to the concentration of compound required to reduce the proliferation of HCT-116 cells by 50% following a 96 h period of exposure. The column headed [Polyploidy] refers to the lowest concentration of compound required to produce a distinct polyploid phenotype, believed to be due to Aurora B inhibition.
(In general: The colour change of resazurin is a common sign of viable cells or microbes.)

In series [2] the test system is HCT-116. Description: Polyploid phenotype in HCT-116 cells. In kind it is cell-based, human. As for the experimental part:
as §13, §14

A short description of series [3]: Caco-2 permeability assay. The series is classed as in vitro ADME. The note with it: human; for Papp A→B: A2B, read-out: Caco2 A2B Papp; for Papp B→A: B2A, read-out: Caco2 B2A Papp; for efflux ratio: B2A:A2B, read-out: Caco2 Efflux ratio. As for the experimental part: The ability of a compound to be taken up and retained by a cell can be measured by carrying out permeability studies using Caco-2 cells.
Compounds of the present invention were therefore tested in a standard Caco-2 assay and the rate of flow of the compounds into and out of the cells was determined.
In the table, the column headed “Caco-2 A2B” indicates the rate at which compound flows into the cells and the column Caco-2 B2A indicates the rate at which compound flows out of the cells. The “Efflux Ratio” is the ratio of Caco-2 B2A:Caco-2 A2B.
(Passage across Caco-2 layers is used to estimate intestinal permeability.)

For a further series, the system named is MV4-11 xenograft tumors. In words: MV4-11 xenograft study in nude mice. The note with it: 100 mg/kg IP once daily, 4 cycles. The series is classed as in vivo, Balb/c nude mouse. The text has this:
The in vivo antitumour activity of compounds of the invention was investigated by examining the effect of the compounds of Examples 2 and 7 on tumour growth in a nude mouse xenograft model of the MV4-11 cancer cell line.
MV4-11 cell line (ATCC, USA); RPMI 1640 medium (Invitrogen, USA); FBS (Invitrogen, Australia); Balb/c nude mouse (Slac Laboratory Animal Co., Ltd., Shanghai, China): female, 18-22 g; HP-6-CD (Sigma, USA).
A total of 52 female nude mice were used. The mice were allowed 3 days of acclimatization period before starting the experiment. Mice were implanted subcutaneously (s.c.) with 200 μl of 1×10^7MV4-11 tumour cells in 50% Matrigel in the right flank at the beginning of the study. When tumours reached an average volume of 100-150 mm^3, 32 mice out of the 52 were selected based on tumour volume, and randomly assigned to 4 groups prior to dosing. Each treatment group consisted of 8 tumour-bearing animals (n=8/group).
A comparison group of mice were treated with cytarabine once daily for 5 days on, 2 days off, for 4 cycles.
Mice were weighed at each dosing and the tumour sizes recorded twice each week. Mice were observed closely for any overt signs of adverse, treatment-related side effects and these were recorded if and when they were observed.
The tumour size was measured twice weekly in two dimensions using calipers, and the volume was expressed in mm^3 using the formula: V=0.5 a×b^2 where a and b were the long and short diameters of the tumour, respectively.
Mice were euthanized by CO2 exposure after 4-cycle dose. The tumour volume, weight of dissected tumours, and the mouse body weight were measured and recorded. The tumour inhibitory rate (IR) was calculated by the formula IR=(WV−WT)/WV×100%.
The differences in tumour size between the groups were analyzed for significance using the unpaired two-tailed Student's t-test. P<0.05 was considered to be statistically significant.

Sequence of Aurora B kinase (Q96GD4 whole entry): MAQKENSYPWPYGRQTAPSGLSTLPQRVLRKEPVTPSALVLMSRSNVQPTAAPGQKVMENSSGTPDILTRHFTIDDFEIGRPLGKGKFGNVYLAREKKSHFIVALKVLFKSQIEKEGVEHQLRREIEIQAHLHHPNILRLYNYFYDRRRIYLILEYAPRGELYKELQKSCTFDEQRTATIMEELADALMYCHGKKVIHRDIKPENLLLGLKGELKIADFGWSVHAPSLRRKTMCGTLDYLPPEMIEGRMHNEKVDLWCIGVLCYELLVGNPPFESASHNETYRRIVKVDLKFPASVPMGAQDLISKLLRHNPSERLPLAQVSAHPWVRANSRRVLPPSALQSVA
Sequence of Aurora A kinase (O14965 whole entry): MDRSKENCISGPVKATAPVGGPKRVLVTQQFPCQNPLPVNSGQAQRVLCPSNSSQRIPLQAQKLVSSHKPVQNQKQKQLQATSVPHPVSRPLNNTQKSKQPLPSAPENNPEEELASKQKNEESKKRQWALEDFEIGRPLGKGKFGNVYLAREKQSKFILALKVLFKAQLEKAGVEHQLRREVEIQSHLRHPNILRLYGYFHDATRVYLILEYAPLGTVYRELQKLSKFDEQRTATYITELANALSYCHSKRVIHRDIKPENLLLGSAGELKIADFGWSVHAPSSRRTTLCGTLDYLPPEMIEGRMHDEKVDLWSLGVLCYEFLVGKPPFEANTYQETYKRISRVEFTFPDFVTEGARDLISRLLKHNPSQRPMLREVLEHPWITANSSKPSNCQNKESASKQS
Sequence of FLT3 kinase (P36888 27-993): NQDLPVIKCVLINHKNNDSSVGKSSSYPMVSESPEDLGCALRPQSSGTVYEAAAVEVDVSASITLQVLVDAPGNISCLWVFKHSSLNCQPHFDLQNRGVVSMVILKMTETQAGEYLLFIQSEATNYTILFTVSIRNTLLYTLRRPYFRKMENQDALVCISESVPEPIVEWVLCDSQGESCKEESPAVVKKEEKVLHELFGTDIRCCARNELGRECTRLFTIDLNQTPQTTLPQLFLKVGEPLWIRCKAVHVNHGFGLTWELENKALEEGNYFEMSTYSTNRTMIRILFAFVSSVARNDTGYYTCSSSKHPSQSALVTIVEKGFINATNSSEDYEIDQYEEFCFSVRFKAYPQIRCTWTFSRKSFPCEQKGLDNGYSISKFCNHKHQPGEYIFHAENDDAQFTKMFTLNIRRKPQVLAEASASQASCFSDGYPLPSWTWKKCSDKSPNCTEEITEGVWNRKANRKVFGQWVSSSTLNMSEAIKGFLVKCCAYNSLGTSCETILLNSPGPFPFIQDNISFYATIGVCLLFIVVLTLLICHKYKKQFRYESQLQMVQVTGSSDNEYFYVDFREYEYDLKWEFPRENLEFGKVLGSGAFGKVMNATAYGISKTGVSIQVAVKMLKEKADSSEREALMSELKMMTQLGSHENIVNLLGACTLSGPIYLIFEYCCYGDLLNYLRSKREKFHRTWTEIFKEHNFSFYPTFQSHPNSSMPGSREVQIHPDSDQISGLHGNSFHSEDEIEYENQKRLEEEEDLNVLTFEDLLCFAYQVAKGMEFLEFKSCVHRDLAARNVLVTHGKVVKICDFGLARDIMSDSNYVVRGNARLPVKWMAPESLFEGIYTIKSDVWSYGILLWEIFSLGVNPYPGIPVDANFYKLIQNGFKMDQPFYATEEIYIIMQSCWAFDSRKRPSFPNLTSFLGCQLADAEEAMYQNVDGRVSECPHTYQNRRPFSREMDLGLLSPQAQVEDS

In the case of `CC1(C)CN(c2ccc(-c3oc(-c4c(F)ccc5[nH]ccc45)nc3C(N)=O)cc2)CCN1` [Example 1, 2-(5-Fluoro-1H-Indol-4-yl)-5-[4-(3,3-dimethyl-piperazin-1-yl)-phenyl]-oxazole-4-carboxylic acid amide], the IC50 turned out to be 14.6 nM against Aurora A kinase, 24.3 nM against Aurora B kinase, 1.92 nM on FLT3 kinase and 240 nM in the series with HCT-116 [1]. Moreover, in the series with HCT-116 [2], the “[Polyploidy] lowest concentration producing a distinct polyploid phenotype” value amounted to 0.3 µM. In addition, the Papp A→B in series [3] was 0.707 ×10⁻⁶ cm/s. Besides, the Papp B→A in series [3] turned out to be 22.8 ×10⁻⁶ cm/s. For the same molecule, the efflux ratio in series [3] was determined as 32.2.

In the case of `CC1(C)CN(c2ccc(-c3oc(-c4ccc(F)c5[nH]ccc45)nc3C(N)=O)cc2)CCN1` [Example 3, 2-(7-Fluoro-1H-Indol-4-yl)-5-[4-(3,3-dimethyl-piperazin-1-yl)-phenyl]-oxazole-4-carboxylic acid amide], the IC50 against Aurora A kinase is 19.4 nM; at Aurora B kinase, 9.36 nM; against FLT3 kinase, 0.821 nM; in the series with HCT-116 [1], 120 nM. The “[Polyploidy] lowest concentration producing a distinct polyploid phenotype” value in the series on HCT-116 [2] turned out to be 0.1 µM. Besides, in series [3], the Papp A→B turned out to be 1.17 ×10⁻⁶ cm/s. Further, the Papp B→A in series [3] worked out at 7.76 ×10⁻⁶ cm/s. Also, the efflux ratio in series [3] was found to be 6.62.

For the molecule `CC1(C)CN(c2ccc(-c3oc(-c4ccc(Cl)c5[nH]ccc45)nc3C(N)=O)cc2)CCN1` [Example 4, 2-(7-Chloro-1H-Indol-4-yl)-5-[4-(3,3-dimethyl-piperazin-1-yl)-phenyl]-oxazole-4-carboxylic acid amide], the IC50 against Aurora A kinase turned out to be 34 nM; against Aurora B kinase it was 13.9 nM; against FLT3 kinase it was 0.97 nM; in the series on HCT-116 [1], 260 nM. The “[Polyploidy] lowest concentration producing a distinct polyploid phenotype” value in the series with HCT-116 [2] was determined as 0.3 µM. Besides, the Papp A→B in series [3] is 0.64 ×10⁻⁶ cm/s. For the same molecule, the Papp B→A in series [3] was determined as 2.76 ×10⁻⁶ cm/s. In addition, in series [3], the efflux ratio was 4.32.

For `COc1ccc(-c2nc(C(N)=O)c(-c3ccc(N4CCNC(C)(C)C4)cc3)o2)c2cc[nH]c12` [Example 5, 2-(7-Methoxy-1H-Indol-4-yl)-5-[4-(3,3-dimethyl-piperazin-1-yl)-phenyl]-oxazole-4-carboxylic acid amide], the IC50 amounted to 20.5 nM against Aurora A kinase, 8.78 nM at Aurora B kinase, 0.89 nM at FLT3 kinase and 87 nM with HCT-116 [1]. Further, the “[Polyploidy] lowest concentration producing a distinct polyploid phenotype” value in the series on HCT-116 [2] came out at 0.1 µM. In series [3], the Papp A→B was determined as 1.36 ×10⁻⁶ cm/s. For the same molecule, the Papp B→A in series [3] is 11 ×10⁻⁶ cm/s.

On to `Cc1cc(C)c2[nH]ccc2c1-c1nc(C(N)=O)c(-c2ccc(N3CCNC(C)(C)C3)cc2)o1` [Example 6, 2-(5,7-Dimethyl-1H-Indol-4-yl)-5-[4-(3,3-dimethyl-piperazin-1-yl)-phenyl]-oxazole-4-carboxylic acid amide], for which the IC50 on Aurora A kinase was 88.4 nM; on Aurora B kinase it was 19.6 nM; on FLT3 kinase, 1.37 nM; with HCT-116 [1] it was 160 nM. Further, the “[Polyploidy] lowest concentration producing a distinct polyploid phenotype” value with HCT-116 [2] came to 0.1 µM. Also, in series [3], the Papp A→B stood at 0.514 ×10⁻⁶ cm/s. Further, the Papp B→A in series [3] is 2.08 ×10⁻⁶ cm/s. The efflux ratio in series [3] worked out at 4.04.

`Cc1c[nH]c2cccc(-c3nc(C(N)=O)c(-c4ccc(N5CCNC(C)(C)C5)cc4)o3)c12` [Example 8, 2-(3-Methyl-1H-Indol-4-yl)-5-[4-(3,3-dimethyl-piperazin-1-yl)-phenyl]-oxazole-4-carboxylic acid amide]: the concentration for half-maximal inhibition (IC50) at Aurora A kinase is 271 nM. Further, the IC50 against Aurora B kinase came to 14.2 nM. For the same molecule, it took 0.55 nM to reach half-maximal inhibition against FLT3 kinase (IC50). For the same molecule, in series [3], the Papp A→B amounted to 2.07 ×10⁻⁶ cm/s, the Papp B→A worked out at 9.19 ×10⁻⁶ cm/s and the efflux ratio was found to be 4.45.

With `CCc1ccc2[nH]ccc2c1-c1nc(C(N)=O)c(-c2ccc(N3CCNC(C)(C)C3)cc2)o1` [Example 9, 2-(5-Ethyl-1H-Indol-4-yl)-5-[4-(3,3-dimethyl-piperazin-1-yl)-phenyl]-oxazole-4-carboxylic acid amide], in series [3], the Papp A→B was 0.519 ×10⁻⁶ cm/s, the Papp B→A came out at 3.59 ×10⁻⁶ cm/s and the efflux ratio was 6.91.

Regarding `CCc1ccc(-c2nc(C(N)=O)c(-c3ccc(N4CCNC(C)(C)C4)cc3)o2)c2cc[nH]c12` [Example 10, 2-(7-Ethyl-1H-Indol-4-yl)-5-[4-(3,3-dimethyl-piperazin-1-yl)-phenyl]-oxazole-4-carboxylic acid amide], the IC50 with HCT-116 [1] stood at 220 nM. For the same molecule, the “[Polyploidy] lowest concentration producing a distinct polyploid phenotype” value in the series on HCT-116 [2] was determined as 0.3 µM. Also, in series [3], the Papp A→B is 0.37 ×10⁻⁶ cm/s and the Papp B→A came to 2.35 ×10⁻⁶ cm/s.

On to `CC1(C)CN(c2ccc(-c3oc(-c4cccc5[nH]ccc45)nc3C(N)=O)cc2)CCN1` [Example 11, 2-(1H-Indol-4-yl)-5-[4-(3,3-dimethyl-piperazin-1-yl)-phenyl]-oxazole-4-carboxylic acid amide], for which the IC50 against Aurora A kinase was found to be 46.2 nM; on Aurora B kinase, 15.2 nM; in the series on HCT-116 [1], 170 nM. Besides, the “[Polyploidy] lowest concentration producing a distinct polyploid phenotype” value in the series with HCT-116 [2] stood at 0.1 µM. The Papp A→B in series [3] stood at 2.47 ×10⁻⁶ cm/s. The Papp B→A in series [3] amounted to 12.6 ×10⁻⁶ cm/s.

For the molecule `CC1(C)CN(c2ccc(-c3oc(-c4ccc(C(F)(F)F)c5[nH]ccc45)nc3C(N)=O)cc2)CCN1` [Example 12, 2-(7-Trifluoromethyl-1H-Indol-4-yl)-5-[4-(3,3-dimethyl-piperazin-1-yl)-phenyl]-oxazole-4-carboxylic acid amide], on Aurora A kinase, the IC50 is 16 nM. The IC50 against Aurora B kinase is 14 nM. The molecule further gave an IC50 at FLT3 kinase of 2.8 nM. Further, in series [3], the Papp A→B amounted to 0.036 ×10⁻⁶ cm/s, the Papp B→A came out at 1.21 ×10⁻⁶ cm/s and the efflux ratio was 33.5.

As to `NC(=O)c1nc(-c2cccc3[nH]ccc23)oc1-c1ccc(N2CCNCC2)cc1` [Example M-12, 2-(1H-Indol-4-yl)-5-(4-piperazin-1-yl-phenyl)-oxazole-4-carboxylic acid amide, reference compound], the IC50 on Aurora A kinase came out at 75 nM; against Aurora B kinase, 13 nM; against FLT3 kinase it was 1.6 nM; with HCT-116 [1] it was 680 nM. For the same molecule, in the series on HCT-116 [2], the “[Polyploidy] lowest concentration producing a distinct polyploid phenotype” value was 1.0 µM. In addition, the Papp A→B in series [3] worked out at 1.13 ×10⁻⁶ cm/s. For the same molecule, the Papp B→A in series [3] stood at 58.3 ×10⁻⁶ cm/s. Also, the efflux ratio in series [3] was 51.7.

Turning to `Nc1ccn([C@@H]2O[C@H](CO)[C@@H](O)[C@@H]2O)c(=O)n1` [cytarabine, reference compound], the “effect on tumour growth (tumour volume)” value in the series with MV4-11 xenograft tumors is listed as “slowed down but did not completely block the tumour growth”. Also, in the series with MV4-11 xenograft tumors (5 days on, 2 days off), the “tumour inhibitory rate (IR)” value was 66.72%.

Values taken from US9133180B2, “Aurora and FLT3 kinases modulators” (SAREUM LIMITED, priority 2012, dated 2015).
